Laboratory results: patent publication US6576455B1, “Structure-based designed herbicide resistant products” (priority 1995, dated 2003)

Columns and labels:
[1] = tested on: tobacco plants; test: Germination tests of tobacco seeds in the presence of CL 299,263 (imazamox); type: in vivo, Nicotiana tabacum; settings: 2.5 μM CL 299,263
Description: Tobacco plants transformed with rationally designed AHAS genes as described in Example 8 above were also tested for cross-resistance to another herbicide, CL 299,263 (also known as imazamox).

[2] = tested on: tobacco shoots; test: Root formation of tobacco shoots on medium containing 0.25 μM imazethapyr; type: in vivo, Nicotiana tabacum cv. Wisconsin 38; settings: 0.25 μM imazethapyr in medium
Description: FIG. 13 is a photograph showing the root development of tobacco plants transformed with the Arabidopsis AHAS gene containing either the Met124Ile or Arg199Glu mutation and a non-transformed control. Plants were grown for 18 days after transfer into medium containing 0.25 μM imazethapyr.
Leaf disc transformation of Nicotiana tabacum cv. Wisconsin 38 was performed as described by Horsch et al. (Science, 227: 1229-1231, 1985) with slight modifications. Leaf discs were cut from plants grown under sterile conditions and co-cultivated upsidedown in Murashige Skoog media (Sigma Chemical Co., St. Louis, Mo.) for 2-3 days at 25° C. in darkness with Agrobacterium tumefaciens strains containing plasmids pJK002, pJK003, or pJK004. The discs were blotted dry and transferred to regeneration Murashige Skoog medium with B5 vitamins containing 1 mg/L benzyladenine and 0.1 mg/l 1-Napthyl Acetic Acid, 100 mg/L kanamycin, and 500 mg/L cefotaxime (all obtained from Sigma).
Initially, transformants were selected by kanamycin resistance conferred by the nptII gene present in the transformation vector. Shoots derived from the leaf discs were excised and placed on fresh Murashige Skoog hormone free media containing cefotaxime and kanamycin.
Kanamycin-resistant tobacco shoots were transferred to medium containing a 0.25 μM imazethapyr. […]

Compound | effect on wild-type tobacco plants [1] | root formation of non-transformed tobacco shoots (endogenous wild-type AHAS) [2]
COCc1cnc(C2=NC(C)(C(C)C)C(=O)N2)c(C(=O)O)c1 (centres unmarked) [CL 299,263, imazamox] | severe stunting and bleaching | –
CCc1cnc(C2=NC(C)(C(C)C)C(=O)N2)c(C(=O)O)c1 (centres unmarked) [imazethapyr] | – | not able to initiate root formation
